Test results: publication PMC7792806, “Development of Second Generation Activity-Based Chemical Probes for Sirtuins” (Molecules, 2020)

Legend:
SIRT1 [1] = biological target: T1, SIRT1 (Homo sapiens, UniProt Q96EB6); test: Sirtuin inhibition assay (HPLC), SIRT1; assay type: biochemical; conditions: ratio of IC50s
T1 construct: Plasmids of SIRT1 (full length); made in house
T1 sequence (Q96EB6 1-747): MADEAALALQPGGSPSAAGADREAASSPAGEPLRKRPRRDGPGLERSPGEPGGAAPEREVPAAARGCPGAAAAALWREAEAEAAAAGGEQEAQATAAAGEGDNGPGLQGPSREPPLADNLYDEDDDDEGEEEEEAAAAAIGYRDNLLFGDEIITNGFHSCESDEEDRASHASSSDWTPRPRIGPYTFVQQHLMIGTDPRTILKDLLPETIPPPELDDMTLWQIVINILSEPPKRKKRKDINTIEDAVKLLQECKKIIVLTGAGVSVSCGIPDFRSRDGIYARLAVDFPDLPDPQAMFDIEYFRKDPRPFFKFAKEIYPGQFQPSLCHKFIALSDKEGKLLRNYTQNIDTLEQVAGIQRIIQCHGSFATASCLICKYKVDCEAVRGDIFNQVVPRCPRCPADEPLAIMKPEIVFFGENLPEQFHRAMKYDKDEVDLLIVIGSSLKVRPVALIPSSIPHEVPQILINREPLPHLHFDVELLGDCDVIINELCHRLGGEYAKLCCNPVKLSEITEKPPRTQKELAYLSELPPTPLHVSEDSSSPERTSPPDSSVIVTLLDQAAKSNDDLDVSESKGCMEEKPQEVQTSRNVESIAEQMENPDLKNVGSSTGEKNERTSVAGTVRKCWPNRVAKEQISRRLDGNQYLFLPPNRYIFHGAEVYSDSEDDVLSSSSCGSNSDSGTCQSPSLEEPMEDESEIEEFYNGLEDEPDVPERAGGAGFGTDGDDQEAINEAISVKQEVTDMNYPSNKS
Description: (§1) Plasmids of SIRT1 (full length), SIRT2 (38-356), SIRT3 (102-399), and SIRT5 (34-302) were generous gifts from Dr. Hening Lin (Cornell University, Ithaca, NY, USA). SIRT6 was a gift from Cheryl Arrowsmith (Addgene plasmid #28271). The proteins were expressed and purified according to previously published protocols. The identity of the protein was confirmed by tryptic digestion followed by LC-MS/MS analysis performed at the Vermont Genetic Network (VGN) Proteomics Facility. Protein concentrations were determined by Bradford assay (Thermo Fisher Scientific, Rockford, IL, USA).
(§2) A typical reaction contained 500 μM NAD^+ and 500 μM peptide substrate (H3K9Ac for SIRT2, SIRT3 and SIRT6, p53K382Ac for SIRT1 and SIRT5) of varying concentrations of a small molecule probe in 100 mM phosphate buffer pH 7.5. The reactions were initiated by the addition of 10 μM of sirtuin and were incubated at 37 °C before being quenched by 8 μL of 10% TFA. The incubation time was controlled so that the conversion of substrate was less than 15%. The samples were then injected on an HPLC fitted to a Macherey-Nagel Nucleosil C18 column. NAD^+, NAM and AADPR (acetyl-ADP-ribose) peaks were resolved using a gradient of 0 to 20% methanol in 20 mM ammonium acetate. Chromatograms were analyzed at 260 nm. Reactions were quantified by integrating areas of peaks corresponding to NAD^+ and AADPR. Rates were plotted as a function of small molecule probe concentration, and points were fitted to the following equation:ν(%) = ν0(%) − [ν0(%)(10^x)/(10^x + IC50)](1) where ν(%) represents the turnover rate expressed as percent enzymatic activity remaining, and ν0(%) represents the uninhibited turnover rate expressed as an enzymatic activity of 100%. The variable x represents the log[probe] in nanomolar. IC50 values were derived from this equation.

SIRT3 = biological target: T2, SIRT3 (Homo sapiens, UniProt Q9NTG7); test: Sirtuin inhibition assay (HPLC), SIRT3; assay type: biochemical; conditions: ratio of IC50s
T2 construct: SIRT3 (102-399); made in house
T2 sequence (Q9NTG7 102-399): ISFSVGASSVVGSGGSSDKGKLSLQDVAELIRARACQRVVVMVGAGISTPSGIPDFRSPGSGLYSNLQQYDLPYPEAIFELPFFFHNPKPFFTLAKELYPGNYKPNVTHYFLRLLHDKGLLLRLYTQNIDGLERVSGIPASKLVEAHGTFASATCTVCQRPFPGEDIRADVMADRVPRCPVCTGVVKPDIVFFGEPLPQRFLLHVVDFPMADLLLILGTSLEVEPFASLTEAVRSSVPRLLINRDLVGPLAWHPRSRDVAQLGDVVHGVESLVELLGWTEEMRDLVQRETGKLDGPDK
Description: as §1, §2

[2] = tested on: SIRT1, SIRT2, SIRT3, and SIRT6; test: Labeling of individual recombinant sirtuins, in-gel fluorescence; assay type: biochemical, human; conditions: Figure S1
Description: (§3) The improved inhibitory effects of the 2nd generation ABPs prompted us to evaluate the labeling efficiency of these new probes. We first compared the abilities of benzophenone-based probe 1A and diazirine-based probe 2A to label recombinant SIRT2. The enzyme was incubated with NAD^+ and the probe, and then irradiated at 365 nm for 1 h. Subsequently, the sample was conjugated to TAMRA-azide via Cu(I)-catalyzed “click” reaction. The sample was resolved by SDS-PAGE and detected by in-gel fluorescence scanning.
A typical labeling experiment was performed as follows: in a 0.7 mL Eppendorf tube, purified recombinant human sirtuin (10 μM) was incubated with NAD^+ (500 μM) and activity-based probe at 37 °C for 10 min. The sample was transferred to a clear-bottom 96-well plate, placed on ice, and irradiated at 365 nm with a UV-lamp in a cold room. Subsequently, ingredients of the “click-chemistry” including azide-fluor 545, CuSO4, reducing agent (tris(2-carboxyethyl)phosphine, TCEP) and stabilizing agent (tris[(1-benzyl-1H-1,2,3-triazol-4-yl)methyl]amine, TBTA) were added, and the sample was gently agitated at 250 rpm on a microshaker at room temperature for 30 min. Then, the sample was resolved by SDS-PAGE. […] Then, destained gel was analyzed with in-gel fluorescence scanning using a Biorad ChemiDoc MP imager (excitation 532 nm, 580 nm cut-off filter and 30 nm band-pass). […]

SIRT1 [3] = test: Acetylation level of p53 lysine 382 in cells; assay type: cell-based; conditions: Figure S3
SIRT2 = biological target: T3, SIRT2 (Homo sapiens, UniProt Q8IXJ6); test: Photoaffinity labeling of recombinant SIRT2, in-gel fluorescence; assay type: biochemical
T3 construct: SIRT2 (38-356); made in house
T3 sequence (Q8IXJ6 38-356): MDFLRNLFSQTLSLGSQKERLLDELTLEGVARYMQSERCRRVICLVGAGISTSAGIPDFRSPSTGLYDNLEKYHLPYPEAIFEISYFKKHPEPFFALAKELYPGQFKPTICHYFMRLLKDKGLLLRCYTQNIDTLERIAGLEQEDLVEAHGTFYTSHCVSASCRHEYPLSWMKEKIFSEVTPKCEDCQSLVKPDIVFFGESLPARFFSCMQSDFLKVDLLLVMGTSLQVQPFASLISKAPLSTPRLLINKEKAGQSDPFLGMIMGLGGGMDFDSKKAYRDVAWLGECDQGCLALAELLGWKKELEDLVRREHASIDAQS
Description: as §3
Figure 3 Comparison of labeling efficiencies of probes 1A and 2A. (A) Concentration-dependent labeling of SIRT2. SIRT2 (10 μM) was incubated with 500 μM NAD^+ and indicated concentrations of probe 1A or 2A in 100 mM phosphate buffer pH 7.5. The samples were incubated at 37 °C for 10 min, subjected to UV irradiation for 1 h, and then “click” conjugated to TAMRA-azide as described in “Materials and Methods”; (B) and (C) Time-dependent labeling of SIRT2 by probe 2A. The labeling reached plateau within 20 min.
A typical labeling experiment was performed as follows: in a 0.7 mL Eppendorf tube, purified recombinant human sirtuin (10 μM) was incubated with NAD^+ (500 μM) and activity-based probe at 37 °C for 10 min. […] Then, destained gel was analyzed with in-gel fluorescence scanning using a Biorad ChemiDoc MP imager (excitation 532 nm, 580 nm cut-off filter and 30 nm band-pass). […]

SIRT5 = biological target: T4, SIRT5 (Homo sapiens, UniProt Q9NXA8); test: In-cell labeling of SIRT5 with probe 2B, cellular imaging; assay type: cell-based; conditions: 1 mM NR for 6 h, then 50 μM probe 2B, 15 min irradiation at 365 nm; compared with control cells
T4 construct: endogenous in cells; host or cells: HEK293
T4 sequence (Q9NXA8 37-310): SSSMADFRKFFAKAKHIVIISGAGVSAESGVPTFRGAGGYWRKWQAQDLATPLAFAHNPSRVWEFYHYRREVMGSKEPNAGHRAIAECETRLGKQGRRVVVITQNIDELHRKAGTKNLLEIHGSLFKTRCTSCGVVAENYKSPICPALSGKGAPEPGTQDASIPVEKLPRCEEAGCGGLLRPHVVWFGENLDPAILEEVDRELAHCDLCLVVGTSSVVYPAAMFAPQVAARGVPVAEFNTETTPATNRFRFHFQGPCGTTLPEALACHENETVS
Description: HEK293 cells overexpressing SIRT5 were subjected to a treatment known to increase the cellular NAD^+ level. […] Then, the cells were incubated with 50 μM probe 2B and irradiated at 365 nm for 15 min on ice. Subsequently, the cells were treated with freshly prepared “click” staining mix as described in “Materials and Methods”. After the “click” reaction, cells were incubated with anti-SIRT5 antibody before the images were acquired.
Cells were seeded in 35 mm glass-bottom dishes (MatTek, Ashland, MA, USA) and grew until 70 to 80% confluence. Then, the cells were incubated in the presence or absence of 1 mM NR for 6 h before the medium was discarded. The cells were gently rinsed with fresh growth medium three times. Subsequently, the cells were incubated with 50 μM probe 2B for 1 h before the culture dishes were placed on ice. The cells were irradiated at 365 nm in cold room for 15 min followed by fixation with 4% paraformaldehyde and permeabilization with 0.2% Triton X-100 in PBS. Then, the cells were treated with freshly prepared “click” staining mix (10 μM TAMRA-azide, 1 mM CuSO4 and 1 mM TBTA in 2 mL of deionized water), followed by the addition of 2 mM TCEP. […]
Fluorescence microscopy was carried out on a Leica TCS SP5 confocal microscope (Leica Microsystems, Mannheim, Germany). […] Images were acquired and processed using Leica Application Suite Advanced Fluorescence (LAS AF) software.

[4] = tested on: HEK293 cells overexpressing SIRT5; test: Cellular NAD+ measurement, NAD+ cycling assay; assay type: cell-based, human; conditions: 1 mM for 6 h
Description: HEK293 cells overexpressing SIRT5 were subjected to a treatment known to increase the cellular NAD^+ level.
To the cell pellet was added 30 μL of ice-cold 7% perchloric acid; then, the sample was vortexed for 30 s and then sonicated on ice for 5 min. The vortex–sonication cycle was repeated three times. Then, the sample was centrifuged for 3 min at room temperature. Clear supernatant was taken out and neutralized to pH 7 with 3 M NaOH and 1 M phosphate buffer (pH 9). NAD^+ level was then measured using NAD^+ cycling assay as described previously [14].

increased inhibition of SIRT1 compared with probe 1A (SIRT1 [1]) [fold] | increased inhibition of SIRT3 compared with probe 1A (SIRT3) [fold] | labeling intensity of SIRT2 (SIRT2; 10 μM SIRT2, 500 μM NAD+, 1 h irradiation at 365 nm, all concentrations examined) | irradiation time to saturation of SIRT2 labeling (SIRT2; UV irradiation at 365 nm) [min] | labeling intensity of SIRT5 by probe 2B in cells (SIRT5) | SMILES | labeling of recombinant sirtuins [2] | acetylation level of p53 lysine 382, combined with TSA (SIRT1 [3]) | increase of cellular NAD+ concentration [4] [%]
3 | 2 | more intensively than probe 1A | ≤ 20 |  | C#CCCCC1(CCC(=O)N[C@@H](CCCCNC(C)=S)C(=O)N[C@@H](C)C(=O)N[C@@H](C)C(=O)OC)N=N1 [Probe 2A] | labeled SIRT1, SIRT2, SIRT3, and SIRT6 to different extents in dose-dependent manners | increase the acetylation level of p53 lysine 382 | 
 |  |  |  | increased labeling intensity | NC(=O)c1ccc[n+]([C@@H]2O[C@H](CO)[C@@H](O)[C@H]2O)c1 [NR, Nicotinamide riboside] |  |  | 170
